Data as given in patent publication US20240262793A1, “QUINAZOLINE COMPOUND, AND PREPARATION METHOD THEREFOR AND APPLICATION THEREOF” (SHANGHAI PHARMACEUTICALS HOLDING CO., LTD., priority 2021, published 2024).

Tests used:
Format in all cases: cell-based
Conditions in all cases: Homo sapiens, LPS 100 ng/mL
IL-6 = assay: Inhibition of IL-6 in PMA-differentiated, LPS-stimulated THP-1 cells (ELISA of cell supernatant)
Protocol: (§1) (1) Cell culture and inoculation: A stock solution of PMA at 1 mg/mL was diluted with serum-free RP1640 medium to prepare a 100 ng/mL PMA solution. Normal cultured THP-1 cells were centrifuged, resuspended in a complete medium (RP1640 medium containing 10% FBS), and counted. The cell density was adjusted to 2×10^6 cells/mL. An equal volume of 100 ng/mL PMA solution was then added, resulting in a cell density of 1×10^6 cells/mL and a final PMA concentration of 50 ng/mL. 100 μL of the cell suspension was seeded into each well of a 96-well cell culture plate with 1×10^5 cells per well. The 96-well cell culture plate was then incubated at 37° C. in a 5% CO2 atmosphere for 24 hours.
(§2) (2) Drug treatment of cells: On the second day, LPS was added to the complete medium to adjust the final concentration to 100 ng/mL, and the compound was prepared using this LPS-containing medium. The compound was added to the appropriate cell wells according to the prepared concentration gradient. The positive control group (LPS+) was a culture medium solution containing a final concentration of 100 ng/mL LPS and 0.1% DMSO without drugs, while the negative control group (LPS-) was a culture medium solution containing 0.1% DMSO without LPS. The volume in each well was 100 μL.
(§3) (3) Test sample collection: The mixture was centrifuged at 1000 rpm for 5 minutes and the cell supernatant and cell precipitate were collected separately. The cell supernatant was used to detect TNF-α and IL-6, and the cell precipitate was collected for IL-1β detection. After collecting the cell supernatant, the remaining liquid in the wells was discarded and 100 μL of cell lysis solution (20 mM Tris 8.0; 2 mM EDTA; 0.5% Triton X-100) was added to each well for complete lysis.
(§4) (4) Sample detection: The enzyme-linked immunosorbent assay (ELISA) was used to detect the content of each cytokine. The specific steps were performed according to the instructions provided in the corresponding kit manuals. The catalog numbers of kits are as follows: • Human TNF-alpha Quantikine ELISA Kit, Catalog # STA00D • Human IL-1 beta/IL-1F2 Quantikine ELISA Kit, Catalog # SLB50 • Human IL-6 Quantikine ELISA Kit, Catalog # S6050.
(§5) (5) Data analysis: The in vitro inhibitory activity of the compounds was calculated using the following formula: […]

IL-1β = assay: Inhibition of IL-1β in PMA-differentiated, LPS-stimulated THP-1 cells (ELISA of cell lysate)
Protocol: as §1, §2, §3, §4, §5

TNF-α = assay: Inhibition of TNF-α in PMA-differentiated, LPS-stimulated THP-1 cells (ELISA of cell supernatant)
Protocol: as §1, §2, §3, §4, §5

Structure (SMILES) | IC50 (IL-6; THP-1, Table 7, PMA 50 ng/mL) [µM] | IC50 (IL-1β; THP-1, Table 7, PMA 50 ng/mL) [µM] | IC50 (TNF-α; THP-1, Table 7, PMA 50 ng/mL) [µM] | IC50 (IL-6; THP-1, Table 8, PMA 50 ng/mL) [µM] | IC50 (IL-1β; THP-1, Table 8, PMA 50 ng/mL) [µM] | IC50 (TNF-α; THP-1, Table 8, PMA 50 ng/mL) [µM]
O=C1NC2(CCC2)C(=O)N1CCCCNc1ncnc2cc(Cl)ccc12 [Example 64, 7-(4-((7-Chloroquinazolin-4-yl)amino)butyl)-5,7-diazaspiro[3.4]octane-6,8-dione] |  |  |  | 0.34 | 63.8 | 34.9
CC(CCCN1C(=O)CN(C)C1=O)Nc1ccnc2cc(Cl)ccc12 (stereo not drawn) [Example 2, 3-(4-((7-Chloroquinolin-4-yl)amino)pentyl)-1-methylimidazolidine-2,4-dione] | 1.17 | 17.9 | 10.4 |  |  | 
CCN1CCC2(C1)CN(CCCC(C)Nc1ccnc3cc(Cl)ccc13)C2 (stereo not drawn) [Example 9, 7-Chloro-N-(5-(6-ethyl-2,6-diazaspiro[3.4]octan-2-yl)pentan-2-yl)quinolin-4-amine] | 10.5 | 48.3 | 28.3 |  |  | 
CC(CCCN1CC(F)(F)C1)Nc1ccnc2cc(Cl)ccc12 (stereo not drawn) [Example 10, 7-Chloro-N-(5-(3,3-difluoroazetidin-1-yl)pentan-2-yl)quinolin-4-amine] | 0.38 | 15 | 8.91 |  |  | 
O=C1CNC(=O)N1CCCCNc1ncnc2cc(F)ccc12 [Example 56, 3-(4-((7-Fluoroquinazolin-4-yl)amino)butyl)imidazoline-2,4-dione] |  |  |  | 18.8 | 16.3 | 159
O=C1NC2(CCCC2)C(=O)N1CCCCNc1ncnc2cc(Cl)ccc12 [Example 62, 3-(4-((7-Chloroquinazolin-4-yl)amino)butyl)-1,3-diazaspiro[4.4]nonane-2,4-dione] |  |  |  | 0.75 | 51.6 | 7.18
O=C1NC2(CCC2)C(=O)N1CCCCCNc1ncnc2cc(F)ccc12 [Example 51, 7-(5-((7-Fluoroquinazolin-4-yl)amino)pentyl)-5,7-diazaspiro[3.4]octane-6,8-dione] |  |  |  | 0.04 | 3.52 | 3.96
O=C1NC2(CCCC2)C(=O)N1CCCCCNc1ncnc2cc(F)ccc12 [Example 52, 3-(5-((7-Fluoroquinazolin-4-yl)amino)pentyl)-1,3-diazaspiro[4.4]nonane-2,4-dione] |  |  |  | 0.28 | 21 | 28.3
CC(CCCNCC1(C)COC1)Nc1ccnc2cc(Cl)ccc12 (stereo not drawn) [Example 4, N^4-(7-Chloroquinolin-4-yl)-N^1-((3-methyloxetan-3-yl)methyl)pentane-1,4-diamine] | 1.28 | 14.4 | 5.54 |  |  | 
CC(CCCN(CCO)Cc1ccccc1)Nc1ncnc2cc(F)ccc12 (stereo not drawn) [Example 35, 2-(Benzyl(4-((7-fluoroquinazolin-4-yl)amino)pentyl)amino)ethan-1-ol] | 0.82 | 5.66 | 20.1 |  |  | 
O=C1NC2(CCCC2)C(=O)N1CCCCNc1ncnc2cc(F)ccc12 [Example 59, 3-(4-((7-Fluoroquinazolin-4-yl)amino)butyl)-1,3-diazaspiro[4.4]nonane-2,4-dione] |  |  |  | 0.37 | 80.5 | 12.1
CC1(C)NC(=O)N(CCCCNc2ncnc3cc(F)ccc23)C1=O [Example 57, 3-(4-((7-Fluoroquinazolin-4-yl)amino)butyl)-5,5-dimethylimidazoline-2,4-dione] |  |  |  | 3.22 | 53.9 | 29.4

More lines, now with the values ahead:

IC50 (IL-6; THP-1, Table 7, PMA 50 ng/mL) [µM] | IC50 (IL-1β; THP-1, Table 7, PMA 50 ng/mL) [µM] | IC50 (TNF-α; THP-1, Table 7, PMA 50 ng/mL) [µM] | IC50 (IL-6; THP-1, Table 8, PMA 50 ng/mL) [µM] | IC50 (IL-1β; THP-1, Table 8, PMA 50 ng/mL) [µM] | IC50 (TNF-α; THP-1, Table 8, PMA 50 ng/mL) [µM] | Structure (SMILES)
2.06 | 9.79 | 6.91 |  |  |  | COC(=O)c1ccc(CN(CCO)CCCC(C)Nc2ccnc3cc(Cl)ccc23)c(OC)c1 (stereo not drawn) [Example 22, Methyl 4-(((4-((7-chloroquinolin-4-yl)amino)pentyl)(2-hydroxyethyl)amino)methyl)-3-methoxybenzoate]
1.57 | 33.8 | 4.01 |  |  |  | CC(CCCN(CCO)Cc1ccc(OC(F)(F)F)cc1)Nc1ccnc2cc(F)ccc12 (stereo not drawn) [Example 43]
0.59 | 23.4 | 53.2 |  |  |  | CC(CCCN(CCO)Cc1ncco1)Nc1ncnc2cc(Cl)ccc12 (stereo not drawn) [Example 16, 2-((4-((7-Chloroquinazolin-4-yl)amino)pentyl)(oxazol-2-ylmethyl)amino)ethan-1-ol]
1.31 | 8.64 | 7.13 |  |  |  | COc1ccc(CN(CCO)CCCC(C)Nc2ccnc3cc(Cl)ccc23)cc1F (stereo not drawn) [Example 31, 2-((4-((7-Chloroquinolin-4-yl)amino)pentyl)(3-fluoro-4-methoxybenzyl)amino)ethan-1-ol]
0.81 | 2.2 | 14.3 |  |  |  | CC(CCCN(CCO)Cc1ccccn1)Nc1ccnc2cc(Cl)ccc12 (stereo not drawn) [Example 19, 2-((4-((7-Chloroquinolin-4-yl)amino)pentyl)(pyridin-2-ylmethyl)amino)ethan-1-ol]
3.16 | 36.6 | 33.4 |  |  |  | CC(CCCN(CCO)Cc1ccccc1)Nc1ncnc2cc(Cl)ccc12 (stereo not drawn) [Example 34, 2-(Benzyl(4-((7-chloroquinazolin-4-yl)amino)pentyl)amino)ethan-1-ol]
2.84 | 3.31 | 6.56 |  |  |  | COC(=O)c1ccc(CN(CCO)CCCC(C)Nc2ccnc3cc(F)ccc23)cc1 (stereo not drawn) [Example 42]
1.32 | 4.36 | 5.07 |  |  |  | CC(CCCN(CCO)Cc1ccc2ccccc2c1)Nc1ccnc2cc(Cl)ccc12 (stereo not drawn) [Example 25, 2-((4-((7-Chloroquinolin-4-yl)amino)pentyl)(naphthalen-2-ylmethyl)amino)ethan-1-ol]
0.18 | 41.8 | 4.88 |  |  |  | COc1ccc(CN(CCO)CCCC(C)Nc2ncnc3cc(Cl)ccc23)cc1F (stereo not drawn) [Example 37]
